From ChEMBL document CHEMBL1201862, “PubChem BioAssay data set” (2004)
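Step 1: Grow cells in 96-well plates. Step 2: Expose to compound for 48 hours at 5 concentrations. Step 3: Interpolate endpoints linearly; if unreached, use highest concentration. The concentration for 50% growth inhibition is given as GI50.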 Calls of active or inactive are those of the source. Rule as the data show it: active = GI50 up to about 1.1 µM and inactive = higher.

Experiments:
Assay in all cases: NCI tumour cell line growth inhibition, 48 h
HCC 2998 = system: HCC 2998
CAKI-1 = system: CAKI-1
Malme-3M = system: Malme-3M
T47D = system: T47D
RPMI-8226 = system: RPMI-8226
HOP-92 = system: HOP-92
NCI-H23 = system: NCI-H23
DU-145 = system: DU-145
Hs-578T = system: Hs-578T
SR = system: SR
NCI/ADR-RES = system: NCI/ADR-RES
SK-MEL-28 = system: SK-MEL-28
UO-31 = system: UO-31
BT-549 = system: BT-549
UACC-257 = system: UACC-257
CCRF-CEM = system: CCRF-CEM
EKVX = system: EKVX
NCI-H522 = system: NCI-H522
IGROV-1 = system: IGROV-1
PC-3 = system: PC-3
M14 = system: M14
K562 = system: K562
SN12C = system: SN12C
HCT-116 = system: HCT-116
SF-539 = system: SF-539
HCT-15 = system: HCT-15
NCI-H226 = system: NCI-H226
HOP-62 = system: HOP-62
OVCAR-3 = system: OVCAR-3
KM12 = system: KM12
MDA-N = system: MDA-N
SNB-75 = system: SNB-75
ACHN = system: ACHN
NCI-H460 = system: NCI-H460
MDA-MB-231 = system: MDA-MB-231
UACC-62 = system: UACC-62
SF-268 = system: SF-268
SNB-19 = system: SNB-19
OVCAR-5 = system: OVCAR-5
MDA-MB-435 = system: MDA-MB-435
OVCAR-8 = system: OVCAR-8
COLO 205 = system: COLO 205
SK-MEL-2 = system: SK-MEL-2
HL-60 = system: HL-60
SK-MEL-5 = system: SK-MEL-5
MOLT-4 = system: MOLT-4
RXF 393 = system: RXF 393
SW-620 = system: SW-620
OVCAR-4 = system: OVCAR-4
TK-10 = system: TK-10
SK-OV-3 = system: SK-OV-3
U-251 = system: U-251
SF-295 = system: SF-295
A549 = system: A549
MCF7 = system: MCF7
786-0 = system: 786-0
LOX IMVI = system: LOX IMVI
HT-29 = system: HT-29
A498 = system: A498

Cn1c2ccccc2c(=NNc2ccccc2C(=O)O)c2ccccc21
GI50 (HCC 2998): 19.7 µM (inactive) | GI50 (CAKI-1): 23.3 µM (inactive) | GI50 (Malme-3M): 20.4 µM (inactive) | GI50 (T47D): 20.3 µM (inactive) | GI50 (RPMI-8226): 9.82 µM (inactive) | GI50 (HOP-92): 21.7 µM (inactive) | GI50 (NCI-H23): 20.9 µM (inactive) | GI50 (DU-145): 27.5 µM (inactive) | GI50 (Hs-578T): 21.9 µM (inactive) | GI50 (SR): 11.9 µM (inactive) | GI50 (NCI/ADR-RES): 20.1 µM (inactive) | GI50 (SK-MEL-28): 20.2 µM (inactive) | GI50 (UO-31): 18.4 µM (inactive) | GI50 (BT-549): 19.1 µM (inactive) | GI50 (UACC-257): 23.8 µM (inactive) | GI50 (CCRF-CEM): 13.2 µM (inactive) | GI50 (EKVX): 11.8 µM (inactive) | GI50 (NCI-H522): 12 µM (inactive) | GI50 (IGROV-1): 24.2 µM (inactive) | GI50 (PC-3): 12.3 µM (inactive) | GI50 (M14): 22.6 µM (inactive) | GI50 (K562): 8.97 µM (inactive) | GI50 (SN12C): 23.7 µM (inactive) | GI50 (HCT-116): 13.5 µM (inactive) | GI50 (SF-539): 13.1 µM (inactive) | GI50 (HCT-15): 7.87 µM | GI50 (NCI-H226): 16.2 µM (inactive) | GI50 (HOP-62): 23.1 µM (inactive) | GI50 (OVCAR-3): 10.8 µM (inactive) | GI50 (KM12): 12.7 µM (inactive) | GI50 (MDA-N): 21.2 µM (inactive) | GI50 (SNB-75): 21.1 µM (inactive) | GI50 (ACHN): 15.5 µM (inactive) | GI50 (NCI-H460): 13.2 µM (inactive) | GI50 (MDA-MB-231): 16.9 µM (inactive) | GI50 (UACC-62): 19.5 µM (inactive) | GI50 (SF-268): 15.8 µM (inactive) | GI50 (SNB-19): 24.4 µM (inactive) | GI50 (OVCAR-5): 30.3 µM (inactive) | GI50 (MDA-MB-435): 20 µM (inactive) | GI50 (OVCAR-8): 17.5 µM (inactive) | GI50 (COLO 205): 16.3 µM (inactive) | GI50 (SK-MEL-2): 18.7 µM (inactive) | GI50 (HL-60): 17 µM (inactive) | GI50 (SK-MEL-5): 13.7 µM (inactive) | GI50 (MOLT-4): 10.9 µM (inactive) | GI50 (RXF 393): 12.7 µM (inactive) | GI50 (SW-620): 24.4 µM (inactive) | GI50 (OVCAR-4): 13.7 µM (inactive) | GI50 (TK-10): 32.1 µM (inactive) | GI50 (SK-OV-3): 20.3 µM (inactive) | GI50 (U-251): 7.03 µM (inactive) | GI50 (SF-295): 17.6 µM (inactive) | GI50 (A549): 12.9 µM (inactive) | GI50 (MCF7): 10.9 µM (inactive) | GI50 (786-0): 27.5 µM (inactive) | GI50 (LOX IMVI): 11.8 µM (inactive) | GI50 (HT-29): 17.7 µM (inactive)

CCn1c(SCC(=O)NNC(=S)Nc2ccc(C)cc2)nc2ccccc2c1=O
GI50 (HCC 2998): > 100 µM (inactive) | GI50 (Malme-3M): > 100 µM (inactive) | GI50 (T47D): 65.5 µM (inactive) | GI50 (RPMI-8226): 70.1 µM (inactive) | GI50 (NCI-H23): > 100 µM (inactive) | GI50 (DU-145): > 100 µM (inactive) | GI50 (Hs-578T): > 100 µM (inactive) | GI50 (SR): 40.6 µM (inactive) | GI50 (NCI/ADR-RES): > 100 µM (inactive) | GI50 (SK-MEL-28): > 100 µM (inactive) | GI50 (UO-31): 22 µM (inactive) | GI50 (BT-549): > 100 µM (inactive) | GI50 (UACC-257): > 100 µM (inactive) | GI50 (CCRF-CEM): > 100 µM (inactive) | GI50 (EKVX): > 100 µM (inactive) | GI50 (NCI-H522): > 100 µM (inactive) | GI50 (IGROV-1): > 100 µM (inactive) | GI50 (PC-3): > 100 µM (inactive) | GI50 (M14): > 100 µM (inactive) | GI50 (K562): 51.9 µM (inactive) | GI50 (SN12C): > 100 µM (inactive) | GI50 (HCT-116): > 100 µM (inactive) | GI50 (SF-539): > 100 µM (inactive) | GI50 (HCT-15): > 100 µM | GI50 (NCI-H226): > 100 µM (inactive) | GI50 (HOP-62): > 100 µM (inactive) | GI50 (OVCAR-3): > 100 µM (inactive) | GI50 (KM12): > 100 µM (inactive) | GI50 (MDA-N): > 100 µM (inactive) | GI50 (SNB-75): > 100 µM (inactive) | GI50 (ACHN): > 100 µM (inactive) | GI50 (NCI-H460): 1.6 µM (inactive) | GI50 (MDA-MB-231): > 100 µM (inactive) | GI50 (UACC-62): > 100 µM (inactive) | GI50 (SF-268): 57.3 µM (inactive) | GI50 (SNB-19): > 100 µM (inactive) | GI50 (OVCAR-5): > 100 µM (inactive) | GI50 (MDA-MB-435): > 100 µM (inactive) | GI50 (OVCAR-8): > 100 µM (inactive) | GI50 (COLO 205): > 100 µM (inactive) | GI50 (SK-MEL-2): > 100 µM (inactive) | GI50 (HL-60): > 100 µM (inactive) | GI50 (SK-MEL-5): > 100 µM (inactive) | GI50 (MOLT-4): 27.1 µM (inactive) | GI50 (RXF 393): > 100 µM (inactive) | GI50 (A498): > 100 µM (inactive) | GI50 (SW-620): > 100 µM (inactive) | GI50 (OVCAR-4): 78.9 µM (inactive) | GI50 (TK-10): 85.5 µM (inactive) | GI50 (SK-OV-3): > 100 µM (inactive) | GI50 (U-251): > 100 µM (inactive) | GI50 (SF-295): > 100 µM (inactive) | GI50 (A549): > 100 µM (inactive) | GI50 (MCF7): > 100 µM (inactive) | GI50 (786-0): > 100 µM (inactive) | GI50 (LOX IMVI): > 100 µM (inactive) | GI50 (HT-29): > 100 µM (inactive)

O=C1N(c2ccccc2)C(=S)/C(=C/c2ccc(Cl)cc2)N1c1ccc(Cl)cc1
GI50 (HCC 2998): > 100 µM (inactive) | GI50 (CAKI-1): > 100 µM (inactive) | GI50 (Malme-3M): 20.6 µM (inactive) | GI50 (T47D): 63.8 µM (inactive) | GI50 (RPMI-8226): 18.3 µM (inactive) | GI50 (NCI-H23): 44.3 µM (inactive) | GI50 (DU-145): 53 µM (inactive) | GI50 (Hs-578T): 27 µM (inactive) | GI50 (SR): 0.571 µM (active) | GI50 (NCI/ADR-RES): 77.3 µM (inactive) | GI50 (SK-MEL-28): 34.8 µM (inactive) | GI50 (UO-31): 28.5 µM (inactive) | GI50 (BT-549): 44.4 µM (inactive) | GI50 (UACC-257): 55.8 µM (inactive) | GI50 (CCRF-CEM): 18.1 µM (inactive) | GI50 (EKVX): 38.5 µM (inactive) | GI50 (NCI-H522): 15.9 µM (inactive) | GI50 (IGROV-1): 41.3 µM (inactive) | GI50 (PC-3): > 100 µM (inactive) | GI50 (M14): 61.9 µM (inactive) | GI50 (K562): 41.9 µM (inactive) | GI50 (SN12C): 52 µM (inactive) | GI50 (HCT-116): 20 µM (inactive) | GI50 (SF-539): 21.1 µM (inactive) | GI50 (HCT-15): 26.9 µM | GI50 (HOP-62): 32.2 µM (inactive) | GI50 (OVCAR-3): 35.2 µM (inactive) | GI50 (KM12): 52 µM (inactive) | GI50 (MDA-N): 32.9 µM (inactive) | GI50 (SNB-75): 12.6 µM (inactive) | GI50 (ACHN): 19.1 µM (inactive) | GI50 (NCI-H460): > 100 µM (inactive) | GI50 (MDA-MB-231): 27 µM (inactive) | GI50 (UACC-62): 15.8 µM (inactive) | GI50 (SF-268): 46.9 µM (inactive) | GI50 (SNB-19): 48.4 µM (inactive) | GI50 (OVCAR-5): 78.3 µM (inactive) | GI50 (MDA-MB-435): 35.6 µM (inactive) | GI50 (OVCAR-8): 33.6 µM (inactive) | GI50 (COLO 205): 27.5 µM (inactive) | GI50 (SK-MEL-2): 43.7 µM (inactive) | GI50 (HL-60): 32.5 µM (inactive) | GI50 (SK-MEL-5): 46.6 µM (inactive) | GI50 (MOLT-4): 0.923 µM (active) | GI50 (RXF 393): 33.2 µM (inactive) | GI50 (A498): 79.8 µM (inactive) | GI50 (SW-620): 36.1 µM (inactive) | GI50 (OVCAR-4): 28.2 µM (inactive) | GI50 (TK-10): 26.7 µM (inactive) | GI50 (SK-OV-3): 27.1 µM (inactive) | GI50 (U-251): 28.1 µM (inactive) | GI50 (SF-295): 38.4 µM (inactive) | GI50 (A549): > 100 µM (inactive) | GI50 (MCF7): 81.1 µM (inactive) | GI50 (786-0): 23.2 µM (inactive) | GI50 (LOX IMVI): 22.2 µM (inactive) | GI50 (HT-29): 59.3 µM (inactive)
